The results in this text go back to ChEMBL document CHEMBL6078629, “Targeting Protein Kinase, Membrane-Associated Tyrosine/Threonine 1 (PKMYT1) for Precision Cancer Therapy: From Discovery to Clinical Trial” (J Med Chem, 2024).

Series [1] concerns the target T1, Membrane-associated tyrosine- and threonine-specific cdc2-inhibitory kinase (Homo sapiens, UniProt Q99640).
T1 sequence (Q99640 whole entry): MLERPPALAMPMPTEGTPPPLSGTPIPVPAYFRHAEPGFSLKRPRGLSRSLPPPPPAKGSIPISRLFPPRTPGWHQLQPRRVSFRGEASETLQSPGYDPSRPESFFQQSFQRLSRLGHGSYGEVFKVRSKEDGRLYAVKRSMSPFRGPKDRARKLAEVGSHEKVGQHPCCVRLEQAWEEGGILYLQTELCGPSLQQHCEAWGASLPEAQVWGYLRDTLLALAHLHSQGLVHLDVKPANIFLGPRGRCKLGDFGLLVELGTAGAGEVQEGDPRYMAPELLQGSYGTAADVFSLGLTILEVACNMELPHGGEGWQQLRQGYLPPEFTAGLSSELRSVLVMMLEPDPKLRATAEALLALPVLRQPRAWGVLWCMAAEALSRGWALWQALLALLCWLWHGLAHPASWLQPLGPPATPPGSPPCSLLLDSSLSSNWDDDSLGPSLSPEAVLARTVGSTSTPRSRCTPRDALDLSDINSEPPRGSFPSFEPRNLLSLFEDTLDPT
In words: Inhibition of PKMYT1 (unknown origin) by TR-FRET analysis.

Series [2] concerns the target T1, Membrane-associated tyrosine- and threonine-specific cdc2-inhibitory kinase. In words: Inhibition of PKMYT1 (unknown origin).
Series [3] can be described thus: Clearance in CD-1 mouse at 2 mg/kg, iv by LC-MS/MS analysis. It is filed as ADME, organism-based. Particulars: in vivo.
Series [4] is described as follows: Half life in […] at 2 mg/kg, iv. The format is ADME, organism-based. Particulars: in vivo.
Another series has as its system MIA PaCa-2. The series is described as follows: Antiproliferative activity against human MIA PaCa-2 cells assessed as reduction in cell viability incubated for 48 hrs by MTT assay. The format is functional, cell-based. Conditions: MIA PaCa-2, 48 h.
The subject of a further series is HCC1569. The series is described as follows: Antiproliferative activity against human HCC1569 cells assessed as reduction in cell viability incubated for 48 hrs by MTT assay. It is filed as functional, cell-based. Conditions: HCC1569, 48 h.
Series [5] addresses T2, Wee1-like protein kinase (Homo sapiens, UniProt P30291). In words: Binding affinity to WEE1 (unknown origin) assessed as dissociation constant.
For series [6], the target named is T1, Membrane-associated tyrosine- and threonine-specific cdc2-inhibitory kinase. The series is described as follows: Binding affinity to PKMYT1 (unknown origin) assessed as dissociation constant.
The target of series [7] is T2, Wee1-like protein kinase. In words: Inhibition of WEE1 (unknown origin).
Series [8] has as its target T1, Membrane-associated tyrosine- and threonine-specific cdc2-inhibitory kinase. The series is described as follows: Inhibition of PKMYT1 (unknown origin) extracted from insect cells by TR-FRET analysis. It is filed as cell-free, Insect cell.

A value given as a limit tells only on which side of the number the result lay.

T2 sequence (P30291 whole entry): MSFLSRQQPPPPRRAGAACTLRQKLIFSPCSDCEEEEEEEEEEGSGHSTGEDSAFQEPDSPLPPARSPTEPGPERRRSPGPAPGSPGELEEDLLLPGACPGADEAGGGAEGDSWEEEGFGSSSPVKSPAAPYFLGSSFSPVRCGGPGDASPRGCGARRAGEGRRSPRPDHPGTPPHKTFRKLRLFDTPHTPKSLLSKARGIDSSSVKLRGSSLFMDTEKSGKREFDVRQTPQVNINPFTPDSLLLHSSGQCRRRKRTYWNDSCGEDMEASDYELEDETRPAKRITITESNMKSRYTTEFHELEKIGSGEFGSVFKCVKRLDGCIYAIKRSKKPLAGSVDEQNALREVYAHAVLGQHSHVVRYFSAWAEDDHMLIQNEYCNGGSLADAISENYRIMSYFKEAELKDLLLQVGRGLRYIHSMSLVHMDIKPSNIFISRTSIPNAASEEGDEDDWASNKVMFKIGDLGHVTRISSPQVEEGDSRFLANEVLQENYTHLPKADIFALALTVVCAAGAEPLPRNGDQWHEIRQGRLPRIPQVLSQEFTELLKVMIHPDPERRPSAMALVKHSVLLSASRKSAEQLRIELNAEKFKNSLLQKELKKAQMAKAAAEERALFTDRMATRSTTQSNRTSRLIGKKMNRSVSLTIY

Turning to `Cc1cc(Nc2ncc3cc(-c4c(Cl)cccc4Cl)c(=O)n(C)c3n2)ccc1F`, in series [1], the IC50 came to 7.2 nM.
Turning to `Cc1nc2c3c(c(N)n(-c4c(C)ccc(O)c4C)c3n1)C(=O)NCC2`, in [1], the IC50 was no more than 10 nM.
In series [2], `Cc1ccc(O)c(C)c1-c1c(N)c(C(N)=O)nc2cccnc12` gave an IC50 of less than 50 nM.
Regarding `Cc1cc2c(C(N)=O)c(N)n(-c3c(C)c(O)cc(F)c3C)c2nc1C`, in series [3], the clearance was found to be 94.4 mL/min/kg. In series [4], this compound had a half-life of 0.56 h. The values for the IC50 (in the series on MIA PaCa-2; in series [2]) were 4320 nM and no more than 200 nM, respectively.
As to `Cc1ccc(O)c(C)c1-n1c(N)c2c3c(ncnc31)-c1ccccc1NC2=O`, the IC50 with HCC1569 worked out at 42 nM.
Take `COc1ccnc2c(-c3c(C)ccc(O)c3C)c(N)c(C(N)=O)cc12`: in series [2], the IC50 was less than 50 nM.
Take `Cc1ccc(O)c(C)c1-c1cc2cnc(Nc3ccccn3)nc2n(C)c1=O`: the Kd at Wee1-like protein kinase [5] was greater than 500 nM; in series [6], no more than 10 nM.
The corresponding values for `CN(C)C(=O)NCc1cc(Nc2ncc3cc(-c4c(Cl)cccc4Cl)c(=O)n(C)c3n2)nnc1OCCN1CCS(=O)(=O)CC1` are greater than 500 nM and no more than 10 nM.
Regarding `Cc1ccc(O)c(C)c1-n1nc(-c2nccs2)c(C(N)=O)c1N`, the IC50 is 500 nM on Wee1-like protein kinase [7] and no more than 10 nM in [2].
For the compound `Cc1ccc(O)c(C)c1-n1c2ncc(N3CCOCC3)nc2c2c(N)ncnc21`, the IC50 is less than 100 nM in [2] and less than 5 nM in the series on HCC1569.
For the compound `COc1ccc(Nc2ncc3cc(-c4c(C)ccc(O)c4C)c(=O)n(C)c3n2)nc1`, the dissociation constant Kd at Wee1-like protein kinase [5] is greater than 500 nM; in series [6] it was no more than 10 nM.
In the case of `Cc1ccc(O)c(C)c1-c1cnc2[nH]c(-c3ccc(N4CCN(C)CC4)nc3C)nc2c1`, in [2], the IC50 turned out to be 500 nM.
In series [2], `Cc1c(O)cccc1-c1c(N)c(C(N)=O)nc2cccnc12` had an IC50 of less than 50 nM.
Turning to `Cc1ccc(O)c(C)c1-c1c(N)c(C(N)=O)nc2nccnc12`, the IC50 in series [2] is less than 50 nM.
Consider `C[C@@H](O)CC[C@H](C)Oc1ccc(Nc2ncc3cc(-c4c(Cl)cccc4Cl)c(=O)n(C)c3n2)nn1`, for which the Kd at Wee1-like protein kinase [5] was greater than 500 nM; in series [6], no more than 10 nM.
For the compound `Cc1nc2c3c(c(N)n(-c4c(C)ccc(O)c4C)c3n1)C(=O)Nc1ccccc1-2`, the IC50 with HCC1569 was 22 nM.
With `CSc1ncc2c(C(N)=O)c(N)n(-c3c(C)ccc(O)c3C)c2n1`, the IC50 in [2] was less than 100 nM.
In [2], `Cc1ccc(-c2cc3c(Cl)c(-c4c(C)ccc(O)c4C)cnc3[nH]2)cn1` had an IC50 of no more than 10 nM.
Same read-out and setting: to `Cc1ncc(-c2[nH]c3ncc(-c4c(C)ccc(O)c4C)nc3c2Cl)cn1` belongs no more than 10 nM; to `Cc1c(O)cccc1-c1c(N)c(C(N)=O)nc2cccc(C#N)c12`, less than 50 nM.
Take `CCOc1cc2ncc(C#N)c(Nc3ccc(F)c(Cl)c3)c2cc1NC(=O)/C=C\CN(C)C`: the IC50 in [8] amounted to 2900 nM.
`Cc1ccc(O)c(C)c1C1C(N)=C(C(N)=O)C2C=C(C(C)C)C=NN21` (stereo not given): in series [2], the IC50 was less than 10 nM.
As for `Cc1ccc(O)c(C)c1-n1c(N)c2c3c(ncnc31)C=C(c1cnn(C)c1)NC2=O`, the 50% inhibitory concentration (IC50) with HCC1569 came to 8.6 nM.
In series [2], `Cc1ccc(O)c(C)c1-n1c(N)c(C(N)=O)c2cc(NC(N)=O)cnc21` had an IC50 of less than 20 nM.
The compound `Cc1c(O)cccc1-c1c(N)c(C(N)=O)cc2nccc(C#N)c12` gave an IC50 in series [2] of less than 50 nM.
As for `CC1=NN2C(C=C1C1CC1)C(C(N)=O)=C(N)C2c1c(C)ccc(O)c1C` (stereo not given), the IC50 in series [2] was less than 10 nM.
Consider `Cc1cc2c3c(N)ncnc3n(-c3c(C)ccc(O)c3C)c2nc1C`, for which the IC50 in [2] was less than 100 nM; with HCC1569 it was less than 5 nM.
Regarding `CCn1ccc(Oc2ccc(Nc3ncc4cc(-c5c(Cl)cccc5Cl)c(=O)n(C)c4n3)nc2)n1`, the Kd was greater than 500 nM on Wee1-like protein kinase [5] and no more than 10 nM in series [6].
Turning to `COc1ccnc2c(-c3cccc(O)c3C)c(N)c(C(N)=O)cc12`, the IC50 in [2] was less than 50 nM.
Consider `Cc1ccc(O)c(C)c1-n1c(N)c(C(N)=O)c2c(=O)n(CF)ccc21`, for which the IC50 in series [1] came out at 1.5 nM.
As for `Cc1ccc(O)c(C)c1-n1c(N)c2c3c(c(C)ncc31)CCNC2=O`, the IC50 in series [1] was 10 nM; at Wee1-like protein kinase [7], greater than 10000 nM.
`CC1=CC2C(C(N)=O)=C(N)C(c3c(C)ccc(O)c3C)N2N=C1` (stereo not given) yielded an IC50 in [2] of less than 10 nM.
As to `Cc1ccc(O)c(C)c1-n1c(N)c2c3c(c(C)cnc31)CCNC2=O`, in series [1], the IC50 was no more than 10 nM.
The compound `CC1=CC2C(C(N)=O)=C(N)C(c3c(C)ccc(O)c3C)N2N=C1C` (stereo not given) displayed an IC50 in [2] of less than 10 nM.
In the case of `Cc1cc2c(C(N)=O)c(N)n(-c3c(C)ccc(O)c3C)c2nc1C` [LUNRESERTIB], the clearance in series [3] was found to be 46.5 mL/min/kg. In series [4], the half-life is 3.32 h. Further, the IC50 in the series with MIA PaCa-2 stood at 9220 nM.
As for `COc1cc2ncnc(Nc3cccc(Cl)c3)c2cc1OC` [TYRPHOSTIN AG-1478], the IC50 in [8] is 7200 nM.
